Calls of active or inactive are those of the source.
Experiments:
[1] = target: DNA dC->dU-editing enzyme APOBEC-3G (Homo sapiens, UniProt Q9HC16); experiment: APOBEC3G deaminase inhibitors, SAR follow-up, biochemical, fluorescence, single-stranded DNA substrate (AID 602136); assay type: functional; conditions: read-out: IC50_Mean
[2] = target: DNA dC->dU-editing enzyme APOBEC-3A (Homo sapiens, UniProt P31941); experiment: SAR analysis of small molecule inhibitors of APOBEC3A DNA Deaminase via a fluorescence-based single-stranded DNA deaminase assay.; assay type: functional; conditions: read-out: IC50_Mean
Chain of DNA dC->dU-editing enzyme APOBEC-3A (P31941 whole entry): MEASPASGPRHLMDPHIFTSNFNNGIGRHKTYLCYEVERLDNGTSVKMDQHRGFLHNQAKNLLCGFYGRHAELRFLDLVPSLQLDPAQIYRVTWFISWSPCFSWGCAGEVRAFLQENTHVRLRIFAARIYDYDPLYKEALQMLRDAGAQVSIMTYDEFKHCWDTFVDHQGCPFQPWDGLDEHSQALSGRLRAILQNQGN

[3] = THP-1 cell cytotoxicity, dose response, cytotoxicity control, set 3 (AID 504852); assay type: functional; conditions: Mycobacterium tuberculosis
[4] = Vero cell cytotoxicity, dose response, cytotoxicity control for M. tuberculosis growth inhibitor project, Vero cells, purified and synthesized compounds, set 4 (AID 504854); assay type: functional; conditions: Mycobacterium tuberculosis
[5] = NIH-3T3 fibroblast cytotoxicity, dose response, cytotoxicity control, cell-based, fluorescence, Alamar Blue, secondary assay (AID 2327); assay type: functional;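 further: NIH-3T3 mouse fibroblasts cultured with fluconazole at 8 µg/mL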
[6] = target: Serine/threonine-protein phosphatase PP1-alpha catalytic subunit (Homo sapiens, UniProt P62136); experiment: PP1 phosphatase inhibitors, dose response, biochemical, fluorescence (AID 2403);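 further: phosphatase turnover of OMFP into fluorescent 3-O-methylfluorescein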
Chain of Serine/threonine-protein phosphatase PP1-alpha catalytic subunit (P62136 whole entry): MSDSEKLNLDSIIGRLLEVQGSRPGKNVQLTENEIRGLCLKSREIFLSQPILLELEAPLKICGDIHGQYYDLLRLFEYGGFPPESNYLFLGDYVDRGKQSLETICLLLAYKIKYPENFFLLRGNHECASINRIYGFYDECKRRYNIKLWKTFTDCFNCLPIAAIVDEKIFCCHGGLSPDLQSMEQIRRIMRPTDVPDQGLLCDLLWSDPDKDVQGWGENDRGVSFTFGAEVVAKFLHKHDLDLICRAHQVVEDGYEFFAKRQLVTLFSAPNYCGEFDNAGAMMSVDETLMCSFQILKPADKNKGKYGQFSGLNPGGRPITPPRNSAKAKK

[7] = C. albicans growth with fluconazole, confirmation, fluorescence, retest (AID 2467); assay type: functional, cell-based
[8] = inhibitors of intracellular T. cruzi replication, confirmation, NIH3T3 host cells, beta-gal luminescence (AID 2044); assay type: functional, cell-based;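 further: intracellular parasites grown in NIH/3T3 mouse fibroblasts as host cells; luminescent beta-galactosidase reporter signal from transgenic T. cruzi replicating inside host cells; inhibitors lower the luminescence signal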
[9] = target: Serine/threonine-protein phosphatase (Homo sapiens, UniProt Q9BPW0); experiment: Counterscreen for inhibitors of PP1: fluorescence-based biochemical high throughput dose response assay to identify inhibitors of Protein Phosphatase 5 (PP5). [Related pubchem assays: 2034 (Summary (PP5 inhibitors)), 1987 (PP5 inhibitors in singlate), 2235 (PP1 inhibitors in singlate)]
Chain of Serine/threonine-protein phosphatase (Q9BPW0 whole entry): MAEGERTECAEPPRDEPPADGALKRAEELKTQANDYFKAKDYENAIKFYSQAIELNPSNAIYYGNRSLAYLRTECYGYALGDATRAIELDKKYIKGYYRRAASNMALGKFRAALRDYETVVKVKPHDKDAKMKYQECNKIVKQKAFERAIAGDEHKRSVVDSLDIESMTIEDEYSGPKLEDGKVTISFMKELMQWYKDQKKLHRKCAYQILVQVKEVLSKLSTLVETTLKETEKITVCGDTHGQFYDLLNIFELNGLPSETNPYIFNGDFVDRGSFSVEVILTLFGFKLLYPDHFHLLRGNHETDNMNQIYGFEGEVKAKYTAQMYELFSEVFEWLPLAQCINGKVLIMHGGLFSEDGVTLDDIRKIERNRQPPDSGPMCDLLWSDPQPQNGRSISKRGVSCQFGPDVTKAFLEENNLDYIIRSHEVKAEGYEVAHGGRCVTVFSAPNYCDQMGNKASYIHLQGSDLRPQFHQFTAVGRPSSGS

[10] = cytotoxicity toward NIH3T3 fibroblasts, dose response, counter-screen, cell-based, ATP luminescence, mouse fibroblasts (AID 2010); assay type: functional;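 further: cells exposed to compound for about 90 hours before reading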
HEK293 = experiment: inhibitors of LMP1-driven NF-kB reporter, dose response, cell-based, HEK293, luciferase, cherry-pick (AID 588343); assay type: functional; conditions: Homo sapiens
[11] = target: Latent membrane protein 1 (Human herpesvirus 4 (strain B95-8), UniProt P03230); experiment: TES1-eGFP NF-kB reporter inhibition versus Tet-On dsRED, dose response, selectivity assay for LMP1 NF-kB inhibitor project, imaging, HEK293T, dual-color eGFP/dsRED, cherry-picks (AID 588398); assay type: functional, cell-based
Chain of Latent membrane protein 1 (P03230 whole entry): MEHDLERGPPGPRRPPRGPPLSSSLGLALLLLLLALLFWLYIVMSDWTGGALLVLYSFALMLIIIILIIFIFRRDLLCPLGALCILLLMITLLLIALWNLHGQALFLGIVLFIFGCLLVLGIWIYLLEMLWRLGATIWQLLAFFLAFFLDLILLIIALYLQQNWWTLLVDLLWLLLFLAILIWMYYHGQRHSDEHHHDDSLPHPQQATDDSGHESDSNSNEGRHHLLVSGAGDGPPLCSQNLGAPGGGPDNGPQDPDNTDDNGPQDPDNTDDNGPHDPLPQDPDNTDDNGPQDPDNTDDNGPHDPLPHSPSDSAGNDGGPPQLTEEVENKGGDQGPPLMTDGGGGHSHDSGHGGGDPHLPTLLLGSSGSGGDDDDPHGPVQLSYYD

INS1 = experiment: beta cell apoptosis inhibitors, cytokine rescue, dose response, luminescence, retest (AID 449756); assay type: functional, cell-based; conditions: Rattus norvegicus;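 further: cell death triggered by IL-1 beta plus TNF-alpha plus IFN-gamma mixture; protective hits raise ATP signal compared with cytokine alone wells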
[12] = target: Photoreceptor-specific nuclear receptor (Homo sapiens, UniProt Q9Y5X4); assay type: functional, cell-based;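 further: CHO-S cells with Gal4-NCOR and VP16-NR2E3 two-hybrid luciferase reporter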
Chain of Photoreceptor-specific nuclear receptor (Q9Y5X4 whole entry, the tested form may be a part): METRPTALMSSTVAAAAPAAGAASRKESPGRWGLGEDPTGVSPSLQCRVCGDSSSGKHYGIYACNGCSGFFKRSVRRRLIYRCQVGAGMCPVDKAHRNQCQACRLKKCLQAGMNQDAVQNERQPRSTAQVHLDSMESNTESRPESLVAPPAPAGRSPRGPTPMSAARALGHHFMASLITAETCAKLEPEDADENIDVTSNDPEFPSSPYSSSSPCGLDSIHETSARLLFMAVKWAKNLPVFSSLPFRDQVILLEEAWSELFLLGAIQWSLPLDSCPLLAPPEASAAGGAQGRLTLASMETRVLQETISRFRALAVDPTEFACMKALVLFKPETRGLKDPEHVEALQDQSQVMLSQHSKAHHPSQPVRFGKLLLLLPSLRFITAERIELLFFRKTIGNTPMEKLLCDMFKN

CHO-K1 = experiment: (§1) Counterscreen for antagonists of the orexin 1 receptor (OX1R; HCRTR1): Homogeneous time resolved fluorescence (HTRF)-based cell-based dose response assay to identify antagonists of the parental CHO-K1 cell line. [Related pubchem assays (depositor defined):AID434989, AID435008, AID463079, AID485270, AID492963, AID492964, AID492965, AID493232, AID504699, AID504701]; assay type: functional; conditions: Cricetulus griseus
[13] = as §1, with “Fluorescence-based” for “Homogeneous time resolved fluorescence (HTRF)-based”, “cell-based high throughput” for “cell-based”, “CHO” for “CHO-K1”; assay type: functional
[14] = target: T1, Orexin/Hypocretin receptor type 1 (Homo sapiens, UniProt O43613); experiment: Homogeneous Time Resolved Fluorescence (HTRF)-based cell-based high throughput dose response assay for antagonists of the orexin 1 receptor (OX1R; HCRTR1). [Related pubchem assays (depositor defined):AID434989, AID435008, AID463079, AID485270, AID492963, AID492964, AID492965, AID493232, AID504717, AID504718]; assay type: functional
T1 sequence (O43613 whole entry): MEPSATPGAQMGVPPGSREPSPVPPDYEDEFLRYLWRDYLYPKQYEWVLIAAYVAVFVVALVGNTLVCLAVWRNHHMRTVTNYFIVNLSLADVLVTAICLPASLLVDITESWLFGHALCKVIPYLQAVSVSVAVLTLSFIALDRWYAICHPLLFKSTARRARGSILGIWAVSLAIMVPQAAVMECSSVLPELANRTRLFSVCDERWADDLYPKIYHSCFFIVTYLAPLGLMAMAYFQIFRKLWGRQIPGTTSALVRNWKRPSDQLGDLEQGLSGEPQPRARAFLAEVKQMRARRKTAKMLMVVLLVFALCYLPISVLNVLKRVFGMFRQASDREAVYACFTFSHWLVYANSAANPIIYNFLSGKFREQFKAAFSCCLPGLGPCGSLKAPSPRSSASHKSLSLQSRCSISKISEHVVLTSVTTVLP

[15] = target: T1, Orexin/Hypocretin receptor type 1; experiment: Fluorescence-based cell-based high throughput dose response assay for antagonists of the orexin 1 receptor (OX1R; HCRTR1). [Related pubchem assays (depositor defined):AID434989, AID435008, AID463079, AID485270, AID492963, AID492964, AID492965, AID493232, AID504717, AID504718]; assay type: functional
Orexin receptor type 2 [16] = target: T2, Orexin receptor type 2 (Homo sapiens, UniProt O43614); experiment: Counterscreen assay for antagonists of the orexin 1 receptor (OX1R; HCRTR1): Fluorescence-based cell-based dose response assay for antagonists of the orexin 2 receptor (OX2R; HCRTR2), run by assay provider.; assay type: functional
T2 sequence (O43614 whole entry): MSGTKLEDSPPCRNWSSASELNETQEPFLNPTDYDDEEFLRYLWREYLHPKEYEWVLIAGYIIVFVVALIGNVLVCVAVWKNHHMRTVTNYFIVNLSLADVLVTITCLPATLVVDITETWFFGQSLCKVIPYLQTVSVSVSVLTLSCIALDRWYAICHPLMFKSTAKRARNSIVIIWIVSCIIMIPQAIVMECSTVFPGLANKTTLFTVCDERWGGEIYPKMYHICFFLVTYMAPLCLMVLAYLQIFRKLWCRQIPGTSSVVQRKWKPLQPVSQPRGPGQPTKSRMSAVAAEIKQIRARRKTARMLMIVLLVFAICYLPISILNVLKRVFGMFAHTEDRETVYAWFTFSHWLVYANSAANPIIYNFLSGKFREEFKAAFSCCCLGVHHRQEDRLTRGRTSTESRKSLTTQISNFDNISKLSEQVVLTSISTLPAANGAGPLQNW

Orexin receptor type 2 [17] = target: T2, Orexin receptor type 2; experiment: Counterscreen assay for antagonists of the orexin 1 receptor (OX1R; HCRTR1): Homogeneous Time Resolved Fluorescence (HTRF)-based cell-based dose response assay for antagonists of the orexin 2 receptor (OX2R; HCRTR2), run by assay provider.; assay type: functional

Chain of DNA dC->dU-editing enzyme APOBEC-3G (Q9HC16 whole entry): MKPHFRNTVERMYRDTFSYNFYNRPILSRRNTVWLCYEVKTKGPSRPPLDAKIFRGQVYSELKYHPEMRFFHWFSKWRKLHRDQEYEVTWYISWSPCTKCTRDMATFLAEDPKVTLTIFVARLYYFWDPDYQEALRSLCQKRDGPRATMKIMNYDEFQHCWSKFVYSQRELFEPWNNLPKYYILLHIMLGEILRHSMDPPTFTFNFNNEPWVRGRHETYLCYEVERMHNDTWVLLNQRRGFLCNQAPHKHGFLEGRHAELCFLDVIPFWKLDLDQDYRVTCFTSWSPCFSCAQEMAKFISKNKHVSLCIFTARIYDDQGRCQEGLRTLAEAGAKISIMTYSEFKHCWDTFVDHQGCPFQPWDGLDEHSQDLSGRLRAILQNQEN

Structure (SMILES): CCOC(=O)CC(c1ccc(N)cc1)n1c(C)ccc1C (stereo not given)
- IC50 [1]: > 99 µM (inactive)
- IC50 [2]: > 99 µM (inactive)

Structure (SMILES): CC1CCN(C(=O)CSc2nc(O)c3ccccc3n2)CC1
- CC50 [3]: > 100 µM (active)
- CC50 [4]: > 100 µM (active)

Structure (SMILES): COc1cnc(-c2ccccn2)nc1Sc1ccccc1Cl
- EC50 [5]: > 150 µM (inconclusive)
- IC50 [6]: 7.8 µM (active)
- EC50 [7]: > 38 µM (not active)
- EC50 [8]: 2.36 µM (active)
- IC50 [9]: 59.1 µM (not active)
- EC50 [10]: > 60 µM (not active)
- AC50 (HEK293): 112 µM (active)
- AC50 [11]: 15.4 µM (active)
- AC50 (INS1): 7.29 µM (active)
- IC50 [12]: 4.25 µM (active)

Structure (SMILES): Cc1cc(Cl)ccc1OCCCC(=O)NCCN1C(=O)S/C(=C\c2cccnc2)C1=O
- IC50 (CHO-K1): > 66.2 µM (inactive)
- IC50 [13]: 21.1 µM (inactive)
- IC50 [14]: 0.264 µM (active)
- IC50 [15]: 1.13 µM (active)
- IC50 (Orexin receptor type 2 [16]): 17.5 µM (inactive)
- IC50 (Orexin receptor type 2 [17]): > 50 µM (inactive)

Reference: ChEMBL document CHEMBL1201862, “PubChem BioAssay data set” (2004)
